“And” between values parts separate entries of the source, which are not always exact repeats. Identical values can stand only once. Toxic doses and inconclusive results are not listed.
System: B6C3F1 mice, B16 melanoma ip, median survival T/C
Test: NCI In Vivo Anticancer Drug Screen. Data for tumor model B16 Melanoma (intraperitoneal) in B6C3F1 mice
Settings: endpoint: median survival time, higher = longer survival
Procedure: The antitumor activity of compounds was measured in mice bearing transplantable tumors. Survival or tumor size were measured and the results are expressed as the measurement made in the treated group (T) divided by the measurement made in the vehicle treated control group (C). The tumor model used in this assay is B16 Melanoma (intraperitoneal) in B6C3F1 mice

In the case of `COC(=O)NC1C(C)OC(OC2C/C=C(/C)C3C=CC4C(OC5CC(OC6CCC(OC7CC(O)C(OC8CCC(O)C(C)O8)C(C)O7)C(C)O6)C(OC(C)=O)C(C)O5)C(C)CC(C)C4C3(C)/C(O)=C3/C(=O)OC4(CC(C=O)=CC(O)C4/C=C\2C)C3=O)CC1(C)[N+](=O)[O-]` (stereo not drawn), the T/C (dose: 1.25 mg/kg/injection, schedule: Q01DX009 (ip), vehicle: water) is reported as 114 % of control, the T/C (dose: 1.69 mg/kg/injection, schedule: Q03HX024 (ip), vehicle: water) is reported as 165 % of control and the T/C (dose: 2.4 mg/kg/injection, schedule: Q01DX005 (ip), vehicle: water) is reported as 124 % of control. For the same compound, the T/C (dose: 2.43 mg/kg/injection, schedule: Q01DX005 (iv), vehicle: water) was 110 % of control, the T/C (dose: 2.5 mg/kg/injection, schedule: Q01DX009 (sc), vehicle: water) was 98 % of control and the T/C (dose: 2.53 mg/kg/injection, schedule: Q03HX024 (ip), vehicle: water) was 186 % of control. For the same compound, the T/C (dose: 3.0 mg/kg/injection, schedule: Q01DX005 (iv), vehicle: water) was 99 % of control, the T/C (dose: 3.4 mg/kg/injection, schedule: Q03HX008 (ip), vehicle: water) was 161 % of control and the T/C (dose: 3.6 mg/kg/injection, schedule: Q01DX005 (ip), vehicle: water) was 160 % of control. The T/C (dose: 3.63 mg/kg/injection, schedule: Q01DX005 (iv), vehicle: water) was 114 % of control, the T/C (dose: 3.77 mg/kg/injection, schedule: Q03HX024 (ip), vehicle: water) was 173 % of control and the T/C (dose: 4.5 mg/kg/injection, schedule: Q01DX005 (iv), vehicle: water) was 105 % of control. For the same compound, the T/C (dose: 4.5 mg/kg/injection, schedule: Q01DX009 (ip), vehicle: water) was 161 % of control, the T/C (dose: 5.0 mg/kg/injection, schedule: Q01DX009 (sc), vehicle: water) was 97 % of control and the T/C (dose: 5.08 mg/kg/injection, schedule: Q03HX008 (ip), vehicle: water) was 171 % of control. For the same compound, the T/C (dose: 5.3 mg/kg/injection, schedule: Q01DX005 (ip), vehicle: water) was 177 % of control, the T/C (dose: 5.4 mg/kg/injection, schedule: Q01DX005 (ip), vehicle: water) was 165 % of control and the T/C (dose: 5.41 mg/kg/injection, schedule: Q01DX005 (iv), vehicle: water) was 108 % of control. For the same compound, the T/C (dose: 5.63 mg/kg/injection, schedule: Q03HX024 (ip), vehicle: water) was 203 % of control, the T/C (dose: 6.0 mg/kg/injection, schedule: Q01DX009 (sc), vehicle: water) was 101 % of control and the T/C (dose: 6.7 mg/kg/injection, schedule: Q01DX005 (iv), vehicle: water) was 105 % of control. For the same compound, the T/C (dose: 6.7 mg/kg/injection, schedule: Q01DX009 (ip), vehicle: water) was 165 % of control, the T/C (dose: 6.74 mg/kg/injection, schedule: Q01DX009 (oral), vehicle: water) was 98 % of control and the T/C (dose: 8.0 mg/kg/injection, schedule: Q01DX005 (ip), vehicle: water) was 153 % of control and 159 % of control. For the same compound, the T/C (dose: 8.0 mg/kg/injection, schedule: Q01DX005 (iv), vehicle: water) was 108 % of control and 120 % of control, the T/C (dose: 8.08 mg/kg/injection, schedule: Q01DX005 (iv), vehicle: water) was 98 % of control and the T/C (dose: 8.1 mg/kg/injection, schedule: Q01DX005 (ip), vehicle: water) was 175 % of control. The T/C (dose: 9.0 mg/kg/injection, schedule: Q01DX009 (sc), vehicle: water) was 109 % of control, the T/C (dose: 9.1 mg/kg/injection, schedule: Q04DX003 (ip), vehicle: water) was 177 % of control and the T/C (dose: 10.0 mg/kg/injection, schedule: Q01DX005 (iv), vehicle: water) was 103 % of control. For the same compound, the T/C (dose: 10.0 mg/kg/injection, schedule: Q01DX009 (sc), vehicle: water) was 100 % of control, the T/C (dose: 10.05 mg/kg/injection, schedule: Q01DX009 (oral), vehicle: water) was 102 % of control and the T/C (dose: 12.0 mg/kg/injection, schedule: Q01DX005 (ip), vehicle: water) was 171 % of control and 197 % of control. The T/C (dose: 12.0 mg/kg/injection, schedule: Q01DX005 (iv), vehicle: water) was 108 % of control and 105 % of control, the T/C (dose: 12.06 mg/kg/injection, schedule: Q01DX001 (iv), vehicle: water) was 116 % of control and the T/C (dose: 12.1 mg/kg/injection, schedule: Q01DX005 (iv), vehicle: water) was 110 % of control. For the same compound, the T/C (dose: 13.0 mg/kg/injection, schedule: Q01DX005 (ip), vehicle: water) was 162 % of control, the T/C (dose: 13.0 mg/kg/injection, schedule: Q01DX009 (sc), vehicle: water) was 101 % of control and the T/C (dose: 13.5 mg/kg/injection, schedule: Q04DX003 (ip), vehicle: water) was 165 % of control. The T/C (dose: 15.0 mg/kg/injection, schedule: Q01DX005 (iv), vehicle: water) was 110 % of control, the T/C (dose: 15.0 mg/kg/injection, schedule: Q01DX009 (ip), vehicle: water) was 180 % of control and the T/C (dose: 15.0 mg/kg/injection, schedule: Q01DX009 (oral), vehicle: water) was 103 % of control. For the same compound, the T/C (dose: 18.0 mg/kg/injection, schedule: Q01DX001 (ip), vehicle: water) was 191 % of control, the T/C (dose: 18.0 mg/kg/injection, schedule: Q01DX005 (ip), vehicle: water) was 112 % of control and the T/C (dose: 18.0 mg/kg/injection, schedule: Q01DX005 (iv), vehicle: water) was 110 % of control and 97 % of control and 104 % of control. For the same compound, the T/C (dose: 18.1 mg/kg/injection, schedule: Q01DX005 (ip), vehicle: water) was 159 % of control, the T/C (dose: 20.0 mg/kg/injection, schedule: Q01DX005 (ip), vehicle: water) was 121 % of control and the T/C (dose: 20.0 mg/kg/injection, schedule: Q01DX009 (sc), vehicle: water) was 95 % of control and 103 % of control. For the same compound, the T/C (dose: 20.2 mg/kg/injection, schedule: Q04DX003 (ip), vehicle: water) was 178 % of control, the T/C (dose: 22.39 mg/kg/injection, schedule: Q01DX009 (oral), vehicle: water) was 96 % of control and the T/C (dose: 27.0 mg/kg/injection, schedule: Q01DX001 (ip), vehicle: water) was 203 % of control. For the same compound, the T/C (dose: 27.0 mg/kg/injection, schedule: Q01DX001 (iv), vehicle: water) was 108 % of control, the T/C (dose: 27.0 mg/kg/injection, schedule: Q01DX005 (iv), vehicle: water) was 112 % of control and 106 % of control and the T/C (dose: 30.0 mg/kg/injection, schedule: Q01DX009 (sc), vehicle: water) was 97 % of control. The T/C (dose: 33.41 mg/kg/injection, schedule: Q01DX009 (oral), vehicle: water) was 101 % of control, the T/C (dose: 40.5 mg/kg/injection, schedule: Q01DX001 (ip), vehicle: water) was 226 % of control and the T/C (dose: 40.5 mg/kg/injection, schedule: Q01DX001 (iv), vehicle: water) was 121 % of control. The T/C (dose: 49.87 mg/kg/injection, schedule: Q01DX009 (oral), vehicle: water) was 100 % of control.
With `CCNC(=O)[B-][N+](C)(C)C` the T/C (dose: 12.5 mg/kg/injection, schedule: Q01DX009 (ip), vehicle: Klucel (hydroxypropylcellulose) (HPC)) was 93 % of control and the T/C (dose: 25.0 mg/kg/injection, schedule: Q01DX009 (ip), vehicle: Klucel (hydroxypropylcellulose) (HPC)) was 95 % of control.
In the case of `O=C1N[C@@H]([C@H]2CC[C@H](Cl)CN2)C(=O)N[C@H]1[C@H]1CC[C@H](Cl)CN1`, the T/C (dose: 0.25 mg/kg/injection, schedule: Q01DX005 (ip), vehicle: saline) is reported as 99 % of control, the T/C (dose: 0.25 mg/kg/injection, schedule: Q01DX005 (iv), vehicle: saline) is reported as 105 % of control and the T/C (dose: 0.25 mg/kg/injection, schedule: Q01DX009 (ip), vehicle: saline) is reported as 107 % of control. The T/C (dose: 0.5 mg/kg/injection, schedule: Q01DX005 (ip), vehicle: saline) was 100 % of control, the T/C (dose: 0.5 mg/kg/injection, schedule: Q01DX005 (iv), vehicle: saline) was 95 % of control and the T/C (dose: 0.5 mg/kg/injection, schedule: Q01DX005 (oral), vehicle: saline) was 96 % of control. The T/C (dose: 0.5 mg/kg/injection, schedule: Q04DX003 (ip), vehicle: saline) was 97 % of control, the T/C (dose: 1.0 mg/kg/injection, schedule: Q01DX005 (ip), vehicle: saline) was 124 % of control and the T/C (dose: 1.0 mg/kg/injection, schedule: Q01DX005 (iv), vehicle: saline) was 99 % of control. The T/C (dose: 1.0 mg/kg/injection, schedule: Q01DX005 (oral), vehicle: saline) was 99 % of control, the T/C (dose: 1.0 mg/kg/injection, schedule: Q04DX003 (ip), vehicle: saline) was 103 % of control and the T/C (dose: 2.0 mg/kg/injection, schedule: Q01DX005 (iv), vehicle: saline) was 108 % of control. The T/C (dose: 2.0 mg/kg/injection, schedule: Q01DX005 (oral), vehicle: saline) was 115 % of control, the T/C (dose: 2.0 mg/kg/injection, schedule: Q04DX003 (ip), vehicle: saline) was 108 % of control and the T/C (dose: 4.0 mg/kg/injection, schedule: Q01DX005 (ip), vehicle: saline) was 183 % of control. The T/C (dose: 4.0 mg/kg/injection, schedule: Q01DX005 (iv), vehicle: saline) was 120 % of control, the T/C (dose: 4.0 mg/kg/injection, schedule: Q01DX005 (oral), vehicle: saline) was 110 % of control and the T/C (dose: 4.0 mg/kg/injection, schedule: Q04DX003 (ip), vehicle: saline) was 112 % of control.

Reference: PubChem BioAssay AID200 (DTP/NCI, 2004)
